# From patent US11629171B2, “Beta-hairpin peptidomimetics” (POLYPHOR AG, priority 2017, dated 2023)
# Where two headings read alike, the source gives them in different places. Where a SMILES comes first, the peptide text is derived from it. Bridges are numbered along the chain shown (N, C = ends). Roman numbers before positions name the chains, in order. [ ]: non-standard residue; d: D form. The star is where a group is joined. Tyrosinol = OC[C@H](Cc1ccc(O)cc1)N*; Thr(ol) = C[C@@H](O)[C@H](N)CO; Pen = CC(C)(S)[C@H](N)C(=O)O; Tle = CC(C)(C)[C@H](N)C(=O)O; Hiv = CC(C)[C@H](O)C(=O)O; dDab = NCC[C@@H](N)C(=O)O; hSer = N[C@@H](CCO)C(=O)O; Dab = NCC[C@H](N)C(=O)O
# How the values were obtained:
# Assay type in all cases: cell-based
# [1] = tested on: Acinetobacter baumannii 872842
# Outline: (§1)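 MIC in μg/mL, read as no visible growth after 18-20 hours at 35° C. Peptides were serially diluted two-fold in MH-II broth plus P-80 (0.002% final, v/v) and inoculated at about 10^6 CFU/mL following the CLSI broth microdilution standard.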
# [2] = tested on: Acinetobacter baumannii DSM 30008
# Outline: as §1
# [3] = tested on: Enterobacter cloacae 848840
# Outline: as §1
# Escherichia coli 926415 = tested on: Escherichia coli 926415
# Outline: as §1
# [4] = tested on: Escherichia coli ATCC 25922
# Outline: as §1
# [5] = tested on: Klebsiella pneumoniae 968733
# Outline: as §1
# [6] = tested on: Klebsiella pneumoniae SSI #3010
# Outline: as §1
# [7] = tested on: Pseudomonas aeruginosa ATCC 27853
# Outline: as §1
# [8] = tested on: human red blood cells (hRBC); assay: Hemolysis
# Outline: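 Hemoglobin release from PBS-washed hRBC at 20% (v/v), incubated 1 h at 37° C with peptides at 200 μg/mL, is measured at 540 nm. Values are blank corrected and given as a fraction of Triton X-100 lysis × 100%.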
MIC [1]; 872842 [µg/mL],MIC ([2]; DSM 30008) [µg/mL],MIC [3]; 848840 [µg/mL],MIC (Escherichia coli 926415; 926415) [µg/mL],MIC ([4]; ATCC 25922) [µg/mL],MIC [5]; 968733 [µg/mL],MIC ([6]; SSI #3010) [µg/mL],MIC ([7]; ATCC 27853) [µg/mL],Compound,"Hemolysis at 200 μg/mL ([8]; red cells of human, 1 h, 200) [%]","MIC ([1]; Acinetobacter baumannii 872842 clinical isolate, Mueller-Hinton II broth) [µg/mL]","MIC ([2]; Acinetobacter baumannii DSM 30008, Mueller-Hinton II broth) [µg/mL]","MIC ([3]; Enterobacter cloacae 848840 clinical isolate, Mueller-Hinton II broth) [µg/mL]","MIC (Escherichia coli 926415; Escherichia coli 926415 clinical isolate, Mueller-Hinton II broth) [µg/mL]","MIC ([4]; Escherichia coli ATCC 25922, Mueller-Hinton II broth) [µg/mL]","MIC ([5]; Klebsiella pneumoniae 968733 clinical isolate, Mueller-Hinton II broth) [µg/mL]","MIC ([6]; Klebsiella pneumoniae SSI #3010, Mueller-Hinton II broth) [µg/mL]","MIC ([7]; Pseudomonas aeruginosa ATCC 27853, Mueller-Hinton II broth) [µg/mL]","Hemolysis at 200 μg/mL ([8]; 200 μg/mL, human red blood cells) [%]"
0.125,0.125,0.25,0.125,0.0625,0.125,0.125,0.25,CC(C)C[C@@H]1NC(=O)[C@@H](CC(C)C)NC(=O)[C@H](CCN)NC(=O)[C@@H](NC(=O)[C@H](CCN)NC(=O)[C@@H](NC(=O)[C@H](CCN)NC(=O)CC[C@@H]2NC(=O)[C@H](CCN)NC(=O)[C@H](Cc3ccc(O)cc3)NC(=O)[C@@H](NC(=O)[C@@H](O)C(C)C)C(C)(C)SSC[C@@H](C(=O)N[C@H](CO)[C@@H](C)O)NC(=O)[C@H](C(C)(C)C)NC(=O)[C@H](CO)NC(=O)[C@H](Cc3c[nH]c4ccccc34)NC(=O)[C@H](CCO)NC(=O)[C@@H](CCN)NC2=O)[C@@H](C)O)CCNC(=O)[C@H]([C@@H](C)O)NC(=O)[C@H](CCN)NC(=O)[C@H](CCN)NC1=O [Ex. 84] (I: H-[Hiv][Pen]Y[Dab]E[dDab][hSer]WS[Tle]C[Thr(ol)] / II: [Dab]T[Dab][Dab][Dab][dL]L[Dab][Dab]T; disulfide I:2-I:11; amide I:5-II:N; lactam II:4-II:C),<1,,,,,,,,,
0.5,0.25,4,1,0.25,8,0.25,0.125,CC(C)C[C@@H]1NC(=O)[C@@H](CC(C)C)NC(=O)[C@H](CCN)NC(=O)[C@@H](NC(=O)[C@H](CCN)NC(=O)[C@@H](NC(=O)[C@H](CCN)NC(=O)CC[C@@H]2NC(=O)[C@H](CCN)NC(=O)[C@H](Cc3ccc(O)cc3)NC(=O)[C@@H](NC(=O)[C@@H](N)C(C)C)CSSC[C@@H](C(=O)N[C@@H](CO)C(N)=O)NC(=O)[C@H](C(C)C)NC(=O)[C@H](CCO)NC(=O)[C@H](Cc3c[nH]c4ccccc34)NC(=O)[C@H](CCO)NC(=O)[C@@H](CCN)NC2=O)[C@@H](C)O)CCNC(=O)[C@H]([C@@H](C)O)NC(=O)[C@H](CCN)NC(=O)[C@H](CCN)NC1=O [Ex. 48] (I: H-VCY[Dab]E[dDab][hSer]W[hSer]VCS-NH2 / II: [Dab]T[Dab][Dab][Dab][dL]L[Dab][Dab]T; disulfide I:2-I:11; amide I:5-II:N; lactam II:4-II:C),<1,,,,,,,,,
,,,,,,,,CC(=O)N[C@H](C(=O)N[C@H]1CSSC[C@@H](C(=O)N[C@H](CO)Cc2ccc(O)cc2)NC(=O)[C@H](C(C)(C)C)NC(=O)[C@H](CO)NC(=O)[C@H](Cc2c[nH]c3ccccc23)NC(=O)[C@H](CCO)NC(=O)[C@@H](CCN)NC(=O)[C@H](CCC(=O)N[C@@H](CCN)C(=O)N[C@H](C(=O)N[C@@H](CCN)C(=O)N[C@H]2CCNC(=O)[C@H]([C@@H](C)O)NC(=O)[C@H](CCN)NC(=O)[C@H](CCN)NC(=O)[C@H](CC(C)C)NC(=O)[C@@H](CC(C)C)NC(=O)[C@H](CCN)NC2=O)[C@@H](C)O)NC(=O)[C@H](CCN)NC(=O)[C@H](CO)NC1=O)C(C)C [Ex. 94] (I: Ac-VCS[Dab]E[dDab][hSer]WS[Tle]C-Tyrosinol / II: [Dab]T[Dab][Dab][Dab][dL]L[Dab][Dab]T; disulfide I:2-I:11; amide I:5-II:N; lactam II:4-II:C),,0.25,0.125,1,0.25,0.0625,0.25,0.0625,0.25,<1
0.5,0.0625,0.5,0.5,0.125,1,0.125,0.25,CC(C)C[C@@H]1NC(=O)[C@@H](CC(C)C)NC(=O)[C@H](CCN)NC(=O)[C@@H](NC(=O)[C@H](CCN)NC(=O)[C@@H](NC(=O)[C@H](CCN)NC(=O)CC[C@@H]2NC(=O)[C@H](CCN)NC(=O)[C@H](C(C)C)NC(=O)[C@@H](NC(=O)[C@@H](O)C(C)C)CSSC[C@@H](C(=O)N[C@H](CO)[C@@H](C)O)NC(=O)[C@H](Cc3ccc(O)cc3)NC(=O)[C@H](CO)NC(=O)[C@H](Cc3c[nH]c4ccccc34)NC(=O)[C@H](CCO)NC(=O)[C@@H](CCN)NC2=O)[C@@H](C)O)CCNC(=O)[C@H]([C@@H](C)O)NC(=O)[C@H](CCN)NC(=O)[C@H](CCN)NC1=O [Ex. 89] (I: H-[Hiv]CV[Dab]E[dDab][hSer]WSYC[Thr(ol)] / II: [Dab]T[Dab][Dab][Dab][dL]L[Dab][Dab]T; disulfide I:2-I:11; amide I:5-II:N; lactam II:4-II:C),<1,,,,,,,,,
